This passage reports EC50 results from US11110082B2, “Tyrosine kinase inhibitors” (Rigel Pharmaceuticals, Inc., priority 2016, dated 2021).

The target in this assay is T1, MerTK (Homo sapiens, UniProt Q12866).
T1 construct: Seed HUVECs (10K cells/well) in EBM-2 complete media; host or cells: HUVEC (primary human umbilical vein endothelial cells)
T1 sequence (Q12866 21-999): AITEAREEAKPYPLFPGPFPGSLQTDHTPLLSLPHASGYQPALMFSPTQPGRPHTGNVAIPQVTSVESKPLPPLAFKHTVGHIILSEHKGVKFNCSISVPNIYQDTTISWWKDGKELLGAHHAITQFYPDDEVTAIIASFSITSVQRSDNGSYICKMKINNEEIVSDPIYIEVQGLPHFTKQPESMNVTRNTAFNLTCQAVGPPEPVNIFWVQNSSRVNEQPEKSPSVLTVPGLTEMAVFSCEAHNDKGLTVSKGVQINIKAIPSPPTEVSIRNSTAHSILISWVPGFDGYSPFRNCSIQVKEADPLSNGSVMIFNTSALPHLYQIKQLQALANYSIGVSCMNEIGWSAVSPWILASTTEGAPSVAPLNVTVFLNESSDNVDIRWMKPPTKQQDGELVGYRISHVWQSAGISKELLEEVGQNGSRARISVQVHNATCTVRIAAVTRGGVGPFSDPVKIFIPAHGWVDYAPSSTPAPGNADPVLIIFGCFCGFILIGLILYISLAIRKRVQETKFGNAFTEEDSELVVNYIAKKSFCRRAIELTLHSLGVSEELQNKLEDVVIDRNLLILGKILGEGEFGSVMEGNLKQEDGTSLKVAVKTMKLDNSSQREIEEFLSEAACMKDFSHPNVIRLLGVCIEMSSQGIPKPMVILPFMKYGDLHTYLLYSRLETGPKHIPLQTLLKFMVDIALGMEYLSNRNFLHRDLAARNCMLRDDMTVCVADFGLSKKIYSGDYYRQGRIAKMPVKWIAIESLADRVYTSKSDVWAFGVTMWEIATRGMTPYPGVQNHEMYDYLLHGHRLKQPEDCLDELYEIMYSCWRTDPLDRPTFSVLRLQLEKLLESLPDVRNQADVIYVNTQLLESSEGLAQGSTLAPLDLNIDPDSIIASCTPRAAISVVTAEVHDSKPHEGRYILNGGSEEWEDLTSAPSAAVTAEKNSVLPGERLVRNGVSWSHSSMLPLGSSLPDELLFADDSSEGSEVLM
Briefly: PAKT HTRF-HUVEC assay (pAkt Ser473 HTRF after anti-human MerTK-XL stimulation). It counts as cell-based. To be noted: HUVEC cells, 1 hour compound, stimulated with anti-human MerTK-XL 1 ug/mL for 10 minutes, read-out: inhibition of MerTK. The gist of the method:
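HUVECs starved 3-4 h in basal medium, preincubated with compound 1 h at 37° C, then stimulated 10 min with cross-linked anti-human MerTK antibody (final 1 ug/mL). Lysates read for pAkt (Ser473) by HTRF; EC50 from curve fitting.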

SMILES strings stand for the structures.

With `CN1CCN(Cc2ccc3c(c2)c(=O)n(C2CCN(C(=O)OC(C)(C)C)CC2)c2nc(NCC4CC4)ncc32)CC1` [Compound 188], the EC50 is 11300 nM.
With `CN1CCC(Nc2ccc3c(c2)c(=O)n([C@H]2CC[C@H](O)CC2)c2nc(NCC4CC4)ncc32)CC1` [Compound 189, trans-3-((Cyclopropylmethyl)amino)-5-(4-hydroxycyclohexyl)-8-((1-methylpiperidin-4-yl)amino)pyrimido[4,5-c]isoquinolin-6(5H)-one] the figure was 76.4 nM; with `CN1CCN(Cc2ccc3c(c2)c(=O)n([C@H]2CC[C@H](NC(=O)CC#N)CC2)c2nc(NCC4CC4)ncc32)CC1` [Compound 190, trans-2-Cyano-N-(4-(3-((cyclopropylmethyl)amino)-8-((4-methylpiperazin-1-yl)methyl)-6-oxopyrimido[4,5-c]isoquinolin-5(6H)-yl)cyclohexyl)acetamide], 73 nM; with `CN1CCN(Cc2ccc3c(c2)c(=O)n(C2CCNCC2)c2nc(NCC4CC4)ncc32)CC1` [Compound 191], 875 nM.
On to `CN1CCN(Cc2ccc3c(c2)c(=O)n(C2CCN(C(=O)CC#N)CC2)c2nc(NCC4CC4)ncc32)CC1` [Compound 192], for which the EC50 was determined as 4040 nM.
The value for `CC(C)Nc1ncc2c3ccc(Cl)cc3c(=O)n([C@H]3CC[C@H](O)CC3)c2n1` [Compound 193] was 957 nM; that for `O=c1c2cc(CN3CCN(c4ccncc4)CC3)ccc2c2cnc(NCC3CC3)nc2n1[C@H]1CC[C@H](O)CC1` [Compound 194] was 33.6 nM.
On to `CC(C)Nc1ncc2c3ccc(CN4CCN(C)CC4)cc3c(=O)n([C@H]3CC[C@H](O)CC3)c2n1` [Compound 195, trans-5-(4-Hydroxycyclohexyl)-3-(isopropylamino)-8-((4-methylpiperazin-1-yl)methyl)pyrimido[4,5-c]isoquinolin-6(5H)-one], for which the EC50 was found to be 72.1 nM.
The value for `CN1CCN(Cc2ccc3c(c2)c(=O)n([C@H]2CC[C@H](O)CC2)c2nc(NC4CC4)ncc32)CC1` [Compound 196, trans-3-(Cyclopropylamino)-5-(4-hydroxycyclohexyl)-8-((4-methylpiperazin-1-yl)methyl)pyrimido[4,5-c]isoquinolin-6(5H)-one] was 240 nM.
With `CCC(F)(F)CNc1ncc2c3ccc(CN4CCC5(CC4)COC5)cc3c(=O)n([C@H]3CC[C@H](O)CC3)c2n1` [Compound 197, trans-8-((2-Oxa-7-azaspiro[3.5]nonan-7-yl)methyl)-3-((2,2-difluorobutyl)amino)-5-(4-hydroxycyclohexyl)pyrimido[4,5-c]isoquinolin-6(5H)-one] the figure was 97.7 nM; with `CCC(F)(F)CNc1ncc2c3ccc(CN4CCN(C(C)(C)C)CC4)cc3c(=O)n([C@H]3CC[C@H](O)CC3)c2n1` [Compound 198, trans-8-((4-(tert-Butyl)piperazin-1-yl)methyl)-3-((2,2-difluorobutyl)amino)-5-(4-hydroxycyclohexyl)pyrimido[4,5-c]isoquinolin-6(5H)-one], 13.2 nM.
For `CC(C)(C)N1CCN(Cc2ccc3c(c2)c(=O)n([C@H]2CC[C@H](O)CC2)c2nc(NC4CC(F)(F)C4)ncc32)CC1` [Compound 199, trans-8-((4-(tert-Butyl)piperazin-1-yl)methyl)-3-((3,3-difluorocyclobutyl)amino)-5-(4-hydroxycyclohexyl)pyrimido[4,5-c]isoquinolin-6(5H)-one], the EC50 stood at 10.8 nM.
Consider `O=C(O)C1CCN(Cc2ccc3c(c2)c(=O)n([C@H]2CC[C@H](O)CC2)c2nc(NCC4CC4)ncc32)CC1` [Compound 200, trans-1-((3-((Cyclopropylmethyl)amino)-5-(4-hydroxycyclohexyl)-6-oxo-5,6-dihydropyrimido[4,5-c]isoquinolin-8-yl)methyl)piperidine-4-carboxylic acid], for which the EC50 worked out at 11300 nM.
Turning to `CC(C)(C)OC(=O)C1CCN(Cc2ccc3c(c2)c(=O)n([C@H]2CC[C@H](O)CC2)c2nc(NCC4CC4)ncc32)CC1` [Compound 201, trans-tert-Butyl 1-((3-((cyclopropylmethyl)amino)-5-(4-hydroxycyclohexyl)-6-oxo-5,6-dihydropyrimido[4,5-c]isoquinolin-8-yl)methyl)piperidine-4-carboxylate], the EC50 came out at 72.5 nM.
The value for `O=c1c2cc(CN3CCCCC3)ccc2c2cnc(NCC3CC3)nc2n1[C@H]1CC[C@H](O)CC1` [Compound 202, trans-3-((Cyclopropylmethyl)amino)-5-(4-hydroxycyclohexyl)-8-(piperidin-1-ylmethyl)pyrimido[4,5-c]isoquinolin-6(5H)-one] was 47.3 nM.
The value for `NC(=O)C1CCN(Cc2ccc3c(c2)c(=O)n([C@H]2CC[C@H](O)CC2)c2nc(NCC4CC4)ncc32)CC1` [Compound 203, trans-1-((3-((Cyclopropylmethyl)amino)-5-(4-hydroxycyclohexyl)-6-oxo-5,6-dihydropyrimido[4,5-c]isoquinolin-8-yl)methyl)piperidine-4-carboxamide] was 167 nM; that for `N#CC1CCN(Cc2ccc3c(c2)c(=O)n([C@H]2CC[C@H](O)CC2)c2nc(NCC4CC4)ncc32)CC1` [Compound 204, trans-1-((3-((Cyclopropylmethyl)amino)-5-(4-hydroxycyclohexyl)-6-oxo-5,6-dihydropyrimido[4,5-c]isoquinolin-8-yl)methyl)piperidine-4-carbonitrile] was 57.7 nM.
With `N[C@H]1CC[C@H](n2c(=O)c3cc(Cl)ccc3c3cnc(NCC4CC4)nc32)CC1` [Compound 205] the figure was 293 nM; with `CC(C)(C)OC(=O)N1CCC(Cc2ccc3c(c2)c(=O)n([C@H]2CC[C@H](O)CC2)c2nc(NCC4CC4)ncc32)CC1` [Compound 206], 1280 nM; with `O=c1c2cc(CC3CCNCC3)ccc2c2cnc(NCC3CC3)nc2n1[C@H]1CC[C@H](O)CC1` [Compound 207, trans-3-((Cyclopropylmethyl)amino)-5-(4-hydroxycyclohexyl)-8-(piperidin-4-ylmethyl)pyrimido[4,5-c]isoquinolin-6(5H)-one], 537 nM.
With `O=c1c2cc(OCCCN3CCOCC3)ccc2c2cnc(NCC3CC3)nc2n1[C@H]1CC[C@H](O)CC1` [Compound 208, trans-3-((Cyclopropylmethyl)amino)-5-(4-hydroxycyclohexyl)-8-(3-morpholinopropoxy)pyrimido[4,5-c]isoquinolin-6(5H)-one], the EC50 turned out to be 415 nM.
With `O=c1c2cc(CN3CCC4(CC3)COC4)ccc2c2cnc(NC3CCC3)nc2n1[C@H]1CC[C@H](O)CC1` [Compound 209, trans-8-((2-Oxa-7-azaspiro[3.5]nonan-7-yl)methyl)-3-(cyclobutylamino)-5-(4-hydroxycyclohexyl)pyrimido[4,5-c]isoquinolin-6(5H)-one] the figure was 13.9 nM; with `O=c1c2cc(CN3CCC4(CC3)COC4)ccc2c2cnc(NC3CC(F)(F)C3)nc2n1[C@H]1CC[C@H](O)CC1` [Compound 210, trans-8-((2-Oxa-7-azaspiro[3.5]nonan-7-yl)methyl)-3-((3,3-difluorocyclobutyl)amino)-5-(4-hydroxycyclohexyl)pyrimido[4,5-c]isoquinolin-6(5H)-one], 85.6 nM; with `O=c1c2cc(CN3CCN(c4ccncc4)CC3)ccc2c2cnc(NC3CC(F)(F)C3)nc2n1[C@H]1CC[C@H](O)CC1` [Compound 212, trans-3-((3,3-Difluorocyclobutyl)amino)-5-(4-hydroxycyclohexyl)-8-((4-(pyridin-4-yl)piperazin-1-yl)methyl)pyrimido[4,5-c]isoquinolin-6(5H)-one], 63.6 nM.
The value for `CCC[C@H](C)Nc1ncc2c3ccc(CN4CCN(C)CC4)cc3c(=O)n([C@H]3CC[C@H](O)CC3)c2n1` [Compound 213, trans-5-(4-hydroxycyclohexyl)-8-((4-methylpiperazin-1-yl)methyl)-3-(((S)-pentan-2-yl)amino)pyrimido[4,5-c]isoquinolin-6(5H)-one] was 30.4 nM; that for `CCC[C@H](C)Nc1ncc2c3ccc(CN4CCC5(CC4)COC5)cc3c(=O)n([C@H]3CC[C@H](O)CC3)c2n1` [Compound 214, trans-8-((2-oxa-7-azaspiro[3.5]nonan-7-yl)methyl)-5-(4-hydroxycyclohexyl)-3-(((5)-pentan-2-yl)amino)pyrimido[4,5-c]isoquinolin-6(5H)-one] was 10.5 nM.
For `CCC[C@H](C)Nc1ncc2c3ccc(CN4CCN(C(C)(C)C)CC4)cc3c(=O)n([C@H]3CC[C@H](O)CC3)c2n1` [Compound 215], the EC50 amounted to 3.7 nM.
